This note sets out measurements from ChEMBL document CHEMBL1129469, “Nonpeptide angiotensin II receptor antagonists: the next generation in antihypertensive therapy” (J Med Chem, 1996).

For orientation: IC50 means the midpoint of a concentration-inhibition curve. As a reminder, the pKB is the negative decadic logarithm of the KB, by convention in mol/L. High values mean a small KB, low ones a large KB. The term ED50 denotes the midpoint of the dose-response relation. A lower ED50 goes with greater potency. As usually defined, the bioavailability is dose-corrected exposure relative to a reference, in per cent. Higher therefore signals much systemic uptake.

Series [1] has as its target T1, Angiotensin II receptor (AT-1) type-1 (Rattus norvegicus, UniProt P29089+P25095).
T1 sequence (P29089 whole entry): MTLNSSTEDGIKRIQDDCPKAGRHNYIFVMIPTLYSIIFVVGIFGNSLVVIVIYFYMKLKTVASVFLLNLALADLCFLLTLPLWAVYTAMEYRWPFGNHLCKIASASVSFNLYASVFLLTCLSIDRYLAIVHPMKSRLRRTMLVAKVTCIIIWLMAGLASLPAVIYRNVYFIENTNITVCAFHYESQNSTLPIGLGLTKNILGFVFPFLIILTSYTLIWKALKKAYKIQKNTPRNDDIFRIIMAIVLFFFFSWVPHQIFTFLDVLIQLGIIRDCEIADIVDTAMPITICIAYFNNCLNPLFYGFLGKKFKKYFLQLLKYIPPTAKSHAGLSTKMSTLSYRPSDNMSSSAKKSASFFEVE
T1 sequence (P25095 whole entry): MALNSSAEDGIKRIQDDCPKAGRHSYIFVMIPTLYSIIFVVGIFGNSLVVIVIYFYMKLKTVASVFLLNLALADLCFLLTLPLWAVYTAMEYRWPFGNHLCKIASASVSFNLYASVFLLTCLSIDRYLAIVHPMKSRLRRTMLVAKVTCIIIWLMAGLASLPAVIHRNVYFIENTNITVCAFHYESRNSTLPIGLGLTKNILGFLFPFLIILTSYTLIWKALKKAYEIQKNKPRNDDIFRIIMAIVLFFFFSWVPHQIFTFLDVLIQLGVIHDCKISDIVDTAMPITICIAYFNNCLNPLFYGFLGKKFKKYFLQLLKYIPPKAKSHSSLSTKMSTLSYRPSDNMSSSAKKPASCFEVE
The experiment in a line: Inhibitory activity against Angiotensin II receptor, type 1. The format is protein assay.

The species named for series [2] is Oryctolagus cuniculus. Briefly: Compound was tested for its antagonistic activity against angiotensin II-induced contractions in rabbit aorta. In kind it is functional.
Series [3] concerns Rattus norvegicus. Briefly: Intravenous effective dose required for lowering blood pressure in renal hypertensive rats (RHR). In kind it is functional.
In series [4] the target is T2, Type-1 angiotensin II receptor (Homo sapiens, UniProt P30556).
T2 sequence (P30556 whole entry): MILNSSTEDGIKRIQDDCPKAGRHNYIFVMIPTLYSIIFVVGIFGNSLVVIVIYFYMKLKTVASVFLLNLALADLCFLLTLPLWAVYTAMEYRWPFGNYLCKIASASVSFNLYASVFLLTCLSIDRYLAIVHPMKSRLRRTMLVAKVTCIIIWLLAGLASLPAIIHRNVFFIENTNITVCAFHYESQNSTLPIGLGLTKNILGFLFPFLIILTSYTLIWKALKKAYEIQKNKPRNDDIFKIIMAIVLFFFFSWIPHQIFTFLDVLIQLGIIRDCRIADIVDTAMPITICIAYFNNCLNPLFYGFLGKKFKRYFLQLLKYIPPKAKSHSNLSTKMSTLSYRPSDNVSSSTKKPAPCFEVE
The experiment in a line: Inhibition of Angiotensin II receptor, type 1.

Series [5] concerns the target T3, Type-2 angiotensin II receptor (Homo sapiens, UniProt P50052).
T3 sequence (P50052 whole entry): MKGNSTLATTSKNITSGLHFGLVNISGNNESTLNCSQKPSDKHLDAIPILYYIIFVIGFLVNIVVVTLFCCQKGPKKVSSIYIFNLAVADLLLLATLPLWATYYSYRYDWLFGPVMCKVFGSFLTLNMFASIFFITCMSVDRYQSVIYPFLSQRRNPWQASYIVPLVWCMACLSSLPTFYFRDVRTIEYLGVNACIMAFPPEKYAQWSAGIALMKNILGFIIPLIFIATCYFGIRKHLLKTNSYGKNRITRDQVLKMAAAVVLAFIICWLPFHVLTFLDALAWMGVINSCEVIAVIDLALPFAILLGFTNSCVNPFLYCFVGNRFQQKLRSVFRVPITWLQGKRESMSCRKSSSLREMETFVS
The experiment in a line: Inhibition of Angiotensin II receptor, type 2.

For series [6], the species on record is Rattus norvegicus. Briefly: Oral effective dose required for lowering blood pressure in renal hypertensive rats (RHR). The format is functional.
The target of series [7] is T4, Type-2 angiotensin II receptor (Rattus norvegicus, UniProt P35351).
T4 sequence (P35351 whole entry): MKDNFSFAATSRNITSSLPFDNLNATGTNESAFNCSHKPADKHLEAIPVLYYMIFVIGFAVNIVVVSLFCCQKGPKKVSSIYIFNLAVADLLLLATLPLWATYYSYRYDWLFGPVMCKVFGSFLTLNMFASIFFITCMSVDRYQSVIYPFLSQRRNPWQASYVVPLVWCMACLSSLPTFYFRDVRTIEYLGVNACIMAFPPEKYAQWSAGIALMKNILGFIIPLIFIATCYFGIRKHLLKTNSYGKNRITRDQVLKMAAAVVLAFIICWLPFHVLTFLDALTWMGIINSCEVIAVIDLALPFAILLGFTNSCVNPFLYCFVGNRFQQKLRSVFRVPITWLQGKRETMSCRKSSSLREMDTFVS
The experiment in a line: Inhibitory activity at Angiotensin II type 2 receptor.

Series [8] is described as follows: Oral bioavailability in rat. To be noted: in vivo. In kind it is ADME, organism-based.

`Cc1cc(Cn2cnc3c2C[C@@H](C(=O)O)N(C(=O)C(c2ccccc2)c2ccccc2)C3)ccc1N(C)C.O=C(O)C(F)(F)F.O=C(O)C(F)(F)F` came in with an IC50 in series [1] of more than 100000 nM.

As to `CCc1nc2c(C)cc(CO)nc2n1Cc1ccc2oc(-c3ccccc3NS(=O)(=O)C(F)(F)F)c(Br)c2c1`, the pKB in series [2] is 8.6.

Compound `CCCCc1nc(Cl)c(CC(=O)O)n1Cc1ccc(C(=O)O)cc1` registered an ED30 in series [3] of 10 mg/kg.

On to `CCCc1ccc2c(c1)-c1ccc(cc1)Cn1c(CCC)nc3ccc(cc3c1=O)NCCCCCCC(=O)NS2(=O)=O`, for which the IC50 in series [4] turned out to be 4 nM; in series [5] it was 24 nM.

`CCCCc1nc(Cl)c(CO)n1Cc1ccc(-c2ccccc2C(=O)O)cc1` registered an ED30 in series [6] of 3.7 mg/kg.

As for `CCCCOC(=O)NS(=O)(=O)c1sc(CC(C)C)cc1-c1ccc(Cn2c(CC)nc3c(C)cc(C)nc32)cc1`, the IC50 in series [4] was determined as 1.1 nM.

Regarding `CCCCOC(=O)NS(=O)(=O)c1ccc(Cc2cccc(OC)c2)cc1-c1ccc(Cn2c(CC)nc3c(C)cc(C)nc32)cc1`, the half-maximal inhibitory concentration (IC50) in series [4] was 1.4 nM.

Take `O=C(O)[C@@H]1Cc2cc(-c3ccccc3)ccc2CN1C(=O)C(c1ccccc1)c1ccccc1`: the half-inhibitory concentration (IC50) in series [1] was more than 100000 nM; in series [7], 30 nM.

Consider `CCCc1nc(C(F)(F)C(F)(F)F)c(C(=O)O)n1Cc1ccc(-c2ccccc2-c2nn[nH]n2)cc1Br`, for which the IC50 in series [1] (read-out: IC50) turned out to be 3 nM.

In series [4], `Cc1cc(Cn2cnc3c2C[C@@H](C(=O)O)N(C(=O)C(c2ccccc2)c2ccccc2)C3)ccc1N` returned an IC50 of more than 100000 nM.

For the compound `CCCc1nc(CC)c(C(=O)OC)n1Cc1ccc(-c2ccccc2S(=O)(=O)NC(=O)OCCC(C)C)cc1F`, the half-maximal inhibitory concentration (IC50) in series [4] and in series [5] was 1 nM each time. In addition, the median effective dose (ED50) in series [3] is 0.48 mg/kg; in series [6] it was 0.67 mg/kg.

Turning to `COc1ccc(Cn2cnc3c2C[C@@H](C(=O)O)N(C(=O)C(c2ccccc2)c2ccccc2)C3)cc1C`, the half-inhibitory concentration (IC50) is more than 100000 nM in series [1] and 70 nM in series [7].

Consider `CCCCC(=O)Nc1ccc(Br)c(-n2nc(CC)n(Cc3ccc(-c4ccccc4S(=O)(=O)NC(=O)OC(C)(C)C)cc3F)c2=O)c1`, for which the values for the IC50 in series [4] and in series [5] were 0.2 nM and 0.12 nM, respectively.

On to `CCc1nc2c(C)cc(C)nc2n1Cc1ccc(-c2ccccc2S(=O)(=O)NC(=O)C(c2ccccc2)c2ccccc2)cc1`, for which the concentration for half-maximal inhibition (IC50) in series [4] amounted to 0.05 nM; in series [5], 18 nM.

Turning to `CCCCOC(=O)NS(=O)(=O)c1ccc(CCC)cc1-c1ccc(Cn2c(CC)nc3c(C)cc(C)nc32)cc1`, the IC50 is 1.5 nM in series [4] and 6.1 nM in series [5].

The compound `CCCCc1nc2ccn(CC(=O)N(c3ccccc3)c3ccccc3)c(=O)c2n1Cc1ccc(-c2ccccc2-c2nnn[nH]2)cc1` registered a half-inhibitory concentration (IC50) in series [7] of 300 nM.

For `CCCNC(=O)NS(=O)(=O)c1ccccc1-c1ccc(Cn2c(CCC)nc(SC)c2C(=O)O)cc1`, the half-inhibitory concentration (IC50) in series [4] worked out at 0.3 nM; in series [5], 775 nM.

Turning to `CCCc1nc(CC)c(C(=O)OCc2ccccc2C(=O)c2ccccc2)n1Cc1ccc(-c2ccccc2S(=O)(=O)NC(=O)OCCC(C)C)cc1F`, the IC50 was determined as 570 nM in series [4] and 0.69 nM in series [5]. Also, the ED30 in series [3] is 0.05 mg/kg; in series [6], 0.9 mg/kg.

Compound `CCCCc1nc(Cl)c(C(=O)O)n1Cc1ccc(-c2ccccc2-c2nn[nH]n2)cc1` [CARBOXYLIC ACID METABOLITE] yielded a bioavailability in series [8] of 12%. Also, the results for the ED30 in series [3] and in series [6] were 0.04 mg/kg and 0.66 mg/kg, respectively.

As to `CCCCc1nc2ccc(C(C)(C)OC)cc2c(=O)n1Cc1ccc(-c2ccccc2-c2nn[nH]n2)cc1` [CL-329167], the IC50 in series [1] (read-out: IC50) was found to be 6 nM.

With `CCCCc1nn(-c2ccccc2C(F)(F)F)c(=O)n1Cc1ccc(-c2ccccc2S(=O)(=O)NC(=O)c2ccccc2)cc1` [L-159913], the 50% inhibitory concentration (IC50) in series [7] is 450 nM.

With `COc1ccc2c(c1OCc1ccccc1)C[C@@H](C(=O)O)N(C(=O)C(c1ccccc1)c1ccccc1)C2` [OLODANRIGAN], the half-inhibitory concentration (IC50) in series [1] was more than 100000 nM.

As to `Cc1nc(C)c2c(n1)N(Cc1ccc(-c3ccccc3-c3nnn[nH]3)cc1)C(=O)CC2` [TASOSARTAN], the ED60 in series [6] amounted to 0.58 mg/kg.
